Assay results from ChEMBL document CHEMBL2169811, “Oncoepigenomics: making histone lysine methylation count” (Eur J Med Chem, 2012).

What was measured:
[1] = target: T1, Histone-lysine N-methyltransferase EHMT2 (Homo sapiens, UniProt Q96KQ7); experiment: Binding affinity to human recombinant G9a catalytic domain amino acid 913 to 1193 expressed in Escherichia coli BL21 (DE3) by isothermal titration calorimetry assay
T1 sequence (Q96KQ7 whole entry): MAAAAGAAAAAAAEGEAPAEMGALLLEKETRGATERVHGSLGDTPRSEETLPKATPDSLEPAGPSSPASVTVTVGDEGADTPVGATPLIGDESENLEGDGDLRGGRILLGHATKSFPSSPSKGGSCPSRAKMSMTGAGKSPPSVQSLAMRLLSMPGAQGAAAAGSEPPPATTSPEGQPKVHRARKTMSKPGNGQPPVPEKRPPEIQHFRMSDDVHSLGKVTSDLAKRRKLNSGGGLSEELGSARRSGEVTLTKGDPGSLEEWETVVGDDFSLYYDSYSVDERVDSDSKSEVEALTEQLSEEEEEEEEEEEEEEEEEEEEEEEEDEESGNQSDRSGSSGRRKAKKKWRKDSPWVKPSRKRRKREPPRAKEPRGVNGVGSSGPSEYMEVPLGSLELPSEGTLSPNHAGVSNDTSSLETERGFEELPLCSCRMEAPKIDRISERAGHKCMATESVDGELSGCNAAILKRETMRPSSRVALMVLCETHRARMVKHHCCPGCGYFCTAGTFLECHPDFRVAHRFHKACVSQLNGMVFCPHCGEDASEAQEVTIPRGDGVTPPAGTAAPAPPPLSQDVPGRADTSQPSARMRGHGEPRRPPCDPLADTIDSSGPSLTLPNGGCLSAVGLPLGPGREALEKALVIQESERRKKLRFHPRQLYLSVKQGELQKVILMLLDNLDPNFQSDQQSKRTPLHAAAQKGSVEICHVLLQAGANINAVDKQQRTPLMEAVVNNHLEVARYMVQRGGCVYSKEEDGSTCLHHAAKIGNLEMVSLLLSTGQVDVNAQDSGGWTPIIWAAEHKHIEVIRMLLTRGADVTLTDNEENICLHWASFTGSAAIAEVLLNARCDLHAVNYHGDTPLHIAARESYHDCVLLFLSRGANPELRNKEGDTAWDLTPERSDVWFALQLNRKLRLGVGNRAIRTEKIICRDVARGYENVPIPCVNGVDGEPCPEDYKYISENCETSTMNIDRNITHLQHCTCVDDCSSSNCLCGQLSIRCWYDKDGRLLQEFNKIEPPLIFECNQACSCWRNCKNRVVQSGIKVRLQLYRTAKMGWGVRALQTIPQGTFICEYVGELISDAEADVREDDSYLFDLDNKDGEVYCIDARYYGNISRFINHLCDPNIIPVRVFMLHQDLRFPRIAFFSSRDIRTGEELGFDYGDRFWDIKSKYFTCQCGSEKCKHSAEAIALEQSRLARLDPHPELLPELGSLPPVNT

[2] = target: T1, Histone-lysine N-methyltransferase EHMT2; experiment: Inhibition of human recombinant G9a catalytic domain amino acid 913 to 1193 expressed in Escherichia coli BL21 (DE3) by mass spectrophotometric assay
[3] = target: T2, Histone-lysine N-methyltransferase EHMT1 (Homo sapiens, UniProt Q9H9B1); experiment: Binding affinity to human recombinant GLP catalytic domain amino acid 951 to 1235 expressed in Escherichia coli BL21 (DE3) by isothermal titration calorimetry assay
T2 sequence (Q9H9B1 whole entry): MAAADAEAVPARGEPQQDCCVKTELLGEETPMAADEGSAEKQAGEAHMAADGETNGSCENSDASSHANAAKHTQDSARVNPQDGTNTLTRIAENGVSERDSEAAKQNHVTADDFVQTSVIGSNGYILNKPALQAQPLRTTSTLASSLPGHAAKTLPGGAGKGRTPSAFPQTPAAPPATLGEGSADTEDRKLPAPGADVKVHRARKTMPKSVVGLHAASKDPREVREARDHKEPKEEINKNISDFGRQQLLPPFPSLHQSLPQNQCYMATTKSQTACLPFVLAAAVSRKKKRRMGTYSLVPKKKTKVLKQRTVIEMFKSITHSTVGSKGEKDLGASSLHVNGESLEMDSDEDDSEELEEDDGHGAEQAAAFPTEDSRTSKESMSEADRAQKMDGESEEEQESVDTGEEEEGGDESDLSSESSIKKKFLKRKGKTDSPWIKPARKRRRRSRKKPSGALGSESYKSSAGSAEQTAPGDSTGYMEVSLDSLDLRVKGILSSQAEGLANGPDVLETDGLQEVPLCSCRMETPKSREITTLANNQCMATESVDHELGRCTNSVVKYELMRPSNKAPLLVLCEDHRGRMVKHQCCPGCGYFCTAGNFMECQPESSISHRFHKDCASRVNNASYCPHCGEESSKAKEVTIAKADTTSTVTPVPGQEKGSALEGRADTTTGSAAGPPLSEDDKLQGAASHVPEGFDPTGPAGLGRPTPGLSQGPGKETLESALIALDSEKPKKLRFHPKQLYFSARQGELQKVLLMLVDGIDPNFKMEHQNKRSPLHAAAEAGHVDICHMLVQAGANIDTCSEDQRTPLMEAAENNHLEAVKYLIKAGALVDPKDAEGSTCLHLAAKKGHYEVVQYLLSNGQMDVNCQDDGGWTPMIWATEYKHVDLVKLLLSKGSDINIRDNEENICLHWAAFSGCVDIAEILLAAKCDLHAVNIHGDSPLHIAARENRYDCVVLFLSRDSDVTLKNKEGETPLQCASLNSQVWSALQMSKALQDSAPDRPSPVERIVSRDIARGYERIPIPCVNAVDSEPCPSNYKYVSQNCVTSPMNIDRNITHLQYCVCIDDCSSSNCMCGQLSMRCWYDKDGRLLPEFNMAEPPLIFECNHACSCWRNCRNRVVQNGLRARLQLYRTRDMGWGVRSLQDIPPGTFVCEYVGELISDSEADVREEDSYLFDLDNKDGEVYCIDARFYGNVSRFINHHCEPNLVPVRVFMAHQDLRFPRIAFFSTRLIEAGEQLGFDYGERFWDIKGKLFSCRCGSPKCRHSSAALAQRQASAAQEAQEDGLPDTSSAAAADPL

[4] = Inhibition of Drosophila melanogaster SET7/9
[5] = target: Histone-lysine N-methyltransferase E(z) (Drosophila melanogaster, UniProt P42124); experiment: Inhibition of Drosophila melanogaster E(Z)
[6] = Inhibition of Neurospora crassa dim5
[7] = target: T1, Histone-lysine N-methyltransferase EHMT2
Description: Inhibition of GST-tagged G9a after 1 hr by radioactive filter-binding assay

[8] = target: T3, Histone-lysine N-methyltransferase Set8 (Drosophila melanogaster, UniProt Q9VFK6); experiment: Inhibition of Drosophila melanogaster PRSET7
T3 sequence (Q9VFK6 whole entry): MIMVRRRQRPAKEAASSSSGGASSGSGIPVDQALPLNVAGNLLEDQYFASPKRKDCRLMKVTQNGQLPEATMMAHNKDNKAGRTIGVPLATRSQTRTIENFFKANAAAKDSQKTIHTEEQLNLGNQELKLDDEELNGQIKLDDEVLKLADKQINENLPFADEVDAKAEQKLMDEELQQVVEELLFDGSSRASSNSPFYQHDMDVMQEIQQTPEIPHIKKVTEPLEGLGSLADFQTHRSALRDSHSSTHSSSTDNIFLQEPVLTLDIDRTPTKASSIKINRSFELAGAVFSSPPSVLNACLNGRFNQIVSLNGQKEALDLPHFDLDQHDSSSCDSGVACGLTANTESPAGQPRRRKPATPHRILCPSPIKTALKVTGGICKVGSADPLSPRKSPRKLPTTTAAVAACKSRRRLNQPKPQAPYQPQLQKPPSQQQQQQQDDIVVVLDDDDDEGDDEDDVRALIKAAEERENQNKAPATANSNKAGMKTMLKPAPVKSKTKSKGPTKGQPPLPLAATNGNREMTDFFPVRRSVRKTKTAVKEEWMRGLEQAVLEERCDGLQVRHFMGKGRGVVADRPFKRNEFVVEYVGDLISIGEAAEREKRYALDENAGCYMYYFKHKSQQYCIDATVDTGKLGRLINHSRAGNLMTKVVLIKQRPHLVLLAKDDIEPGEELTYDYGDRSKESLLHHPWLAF

[9] = target: T4, Histone-lysine N-methyltransferase SUV39H1 (Homo sapiens, UniProt O43463); experiment: Inhibition of human SUV39H1
T4 sequence (O43463 whole entry): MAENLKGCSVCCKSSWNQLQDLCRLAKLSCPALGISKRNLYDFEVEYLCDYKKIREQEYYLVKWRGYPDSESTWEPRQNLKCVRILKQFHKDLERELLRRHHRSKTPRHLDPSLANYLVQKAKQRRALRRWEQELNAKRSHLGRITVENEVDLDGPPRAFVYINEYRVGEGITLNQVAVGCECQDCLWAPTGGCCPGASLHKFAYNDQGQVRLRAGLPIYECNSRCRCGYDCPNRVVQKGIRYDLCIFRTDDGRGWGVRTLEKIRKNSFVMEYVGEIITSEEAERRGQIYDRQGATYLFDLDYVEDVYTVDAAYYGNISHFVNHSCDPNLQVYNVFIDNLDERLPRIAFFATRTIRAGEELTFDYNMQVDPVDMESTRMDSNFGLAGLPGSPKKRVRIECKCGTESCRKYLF

Histone-lysine N-methyltransferase E(z), sequence (P42124 whole entry): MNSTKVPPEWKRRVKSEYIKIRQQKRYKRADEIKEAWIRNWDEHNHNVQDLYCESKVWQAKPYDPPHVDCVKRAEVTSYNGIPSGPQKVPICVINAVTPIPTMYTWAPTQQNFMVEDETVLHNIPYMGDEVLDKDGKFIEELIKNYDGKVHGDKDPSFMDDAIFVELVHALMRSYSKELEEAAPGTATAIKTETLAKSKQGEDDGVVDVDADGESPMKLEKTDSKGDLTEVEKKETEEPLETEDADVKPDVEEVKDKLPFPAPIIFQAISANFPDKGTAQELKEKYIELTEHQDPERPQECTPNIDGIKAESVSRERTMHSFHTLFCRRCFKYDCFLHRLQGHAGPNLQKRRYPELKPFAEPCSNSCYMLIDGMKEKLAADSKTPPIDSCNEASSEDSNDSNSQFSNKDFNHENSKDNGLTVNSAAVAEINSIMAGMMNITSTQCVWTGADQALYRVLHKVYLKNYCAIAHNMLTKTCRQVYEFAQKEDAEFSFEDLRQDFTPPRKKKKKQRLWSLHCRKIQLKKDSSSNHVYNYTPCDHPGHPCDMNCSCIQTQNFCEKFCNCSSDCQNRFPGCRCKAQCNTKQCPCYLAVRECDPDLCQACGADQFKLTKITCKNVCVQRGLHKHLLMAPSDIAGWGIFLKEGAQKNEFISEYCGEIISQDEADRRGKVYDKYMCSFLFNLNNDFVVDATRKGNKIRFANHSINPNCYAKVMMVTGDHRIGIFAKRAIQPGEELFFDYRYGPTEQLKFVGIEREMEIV

| SMILES | Kd [1] | IC50 [2] | Kd [3] | IC50 [4] | IC50 [5] | IC50 [6] | IC50 [7] | IC50 [8] | IC50 [9] |
| --- | --- | --- | --- | --- | --- | --- | --- | --- | --- |
| COc1cc2c(NC3CCN(CCCCCN)CC3)nc(NCCCN(C)C)nc2cc1OCCCCCN | 164 nM | 1300 nM | 136 nM |  |  |  |  |  |  |
| CN1C(=O)[C@@]23C[C@]4([C@]56C[C@@]78SS[C@@](CO)(C(=O)N7[C@H]5Nc5ccccc56)N(C)C8=O)c5ccccc5N[C@@H]4N2C(=O)[C@]1(CO)SS3 [CHAETOCIN] |  |  |  | > 90000 nM | > 90000 nM | 3000 nM | 2400 nM | > 90000 nM | 800 nM |
